{
  "source": "patent US20250381198A1",
  "about": "(Melt Pharmaceuticals, Inc., priority 2024, published 2025)",
  "assay_type_in_all_cases": "in vivo, human",
  "key": {"[1]": {"test_system": "subjects undergoing cataract extraction with lens replacement (CELR)", "assay": "Phase 3 MELT-300: procedural sedation responders (primary endpoint)", "conditions": "for Procedural sedation responder - n: number of subjects", "protocol": "Eligible participants were admitted to the study unit on Day 1.\nParticipants received study medication 30 (+5) minutes, without food or water, before planned surgery start (defined as instillation of topical ocular anesthetic gel (3 drops of chloroprocaine hydrochloride ophthalmic gel)).\nThe effectiveness of MELT-300 was evaluated after study medication is administered before surgery, in the course of surgery (intraoperatively), and postoperative on Day 1 (end of surgery defined as just prior to drape removal). Efficacy assessments included assessments of sedation, need for rescue medication for sedation, need for rescue medication for pain, and the ability to complete the surgery.\nAchievement of the primary endpoint (i.e., procedural sedation) was evaluated. Success for a procedural sedation responder was defined as a subject that achieved the target sedation level (RSS level 2 or 3) by the start of surgery without the need for rescue sedation medication, no requirement for intraoperative sedation medication, and who was able to complete the surgery.\nTreatment differences were tested using a Pearson's chi-square test where a p-value<0.05 indicated a difference, with a Fisher's exact test being used instead if any expected values were <5. […] A supportive stratified analysis was performed using the Cochran-Mantel-Haenszel (CMH) row-mean score test to stratify by site grouping.\nThis sensitivity analysis utilized the last observation (collected after study drug administration) carried forward method for imputing missing preoperative RSS scores just prior to the start of surgery."}, "[2]": {"test_system": "subjects undergoing cataract extraction with lens replacement (CELR)", "assay": "Phase 3: preoperative procedural sedation responders (second key secondary)", "conditions": "for Preoperative procedural sedation responder - n: number of subjects"}, "[3]": {"test_system": "subjects undergoing cataract extraction with lens replacement (CELR)", "assay": "Phase 3: Ramsay sedation scale (RSS) scores", "conditions": "ITT analysis set", "excerpt": "The RSS scores are summarized for: the baseline, just prior to the start of surgery, the minimum and maximum preoperative score, the minimum and maximum intraoperative score, the minimum and maximum postoperative score, and the maximum overall score."}, "[4]": {"conditions": "Just prior to the start of surgery"}},
  "data": [
    {"smiles": "Cc1ncc2n1-c1ccc(Cl)cc1C(c1ccccc1F)=NC2", "note": "[Midazolam, 8-chloro-6-(2-fluorophenyl)-1-methyl-4H-imidazo[1,5-a][1,4]benzodiazepine]", "values": [
      {"measurement": "Procedural sedation responder - %", "setting": "[1]; All-Treated Analysis Set", "result": 65.2, "unit": "%"},
      {"measurement": "Procedural sedation responder - n", "setting": "[1]; All-Treated Analysis Set", "result": 58},
      {"measurement": "Procedural sedation responder - %", "setting": "[1]; ITT Analysis Set", "result": 65.2, "unit": "%"},
      {"measurement": "Procedural sedation responder - n", "setting": "[1]; ITT Analysis Set", "result": 58},
      {"measurement": "Procedural sedation responders (achieved target sedation)", "setting": "[1]; ITT analysis set, MELT-300 or 3 mg midazolam sublingual tablet before CELR", "result": 65.2, "unit": "%"},
      {"measurement": "Procedural sedation responder - %", "setting": "[1]; PP Analysis Set", "result": 65.2, "unit": "%"},
      {"measurement": "Procedural sedation responder - n", "setting": "[1]; PP Analysis Set", "result": 58},
      {"measurement": "Preoperative procedural sedation responder - %", "setting": "[2]; All-Treated Analysis Set", "result": 73.0, "unit": "%"},
      {"measurement": "Preoperative procedural sedation responder - n", "setting": "[2]; All-Treated Analysis Set", "result": 65},
      {"measurement": "Preoperative procedural sedation responder - %", "setting": "[2]; ITT Analysis Set", "result": 73.0, "unit": "%"},
      {"measurement": "Preoperative procedural sedation responder - n", "setting": "[2]; ITT Analysis Set", "result": 65},
      {"measurement": "Preoperative procedural sedation responders", "setting": "[2]; ITT analysis set", "result": 73.0, "unit": "%"},
      {"measurement": "Preoperative procedural sedation responder - %", "setting": "[2]; PP Analysis Set", "result": 73.0, "unit": "%"},
      {"measurement": "Preoperative procedural sedation responder - n", "setting": "[2]; PP Analysis Set", "result": 65},
      {"measurement": "Preoperative procedural sedation responders", "setting": "[2]; PP analysis set", "result": 73.0, "unit": "%"},
      {"measurement": "Preoperative procedural sedation responders", "setting": "[2]; all-treated analysis set", "result": 73.0, "unit": "%"},
      {"measurement": "Ramsay sedation scale score 1, number of subjects", "setting": "[3]; Baseline", "result": 89},
      {"measurement": "Ramsay sedation scale score 1, percent of subjects (in parentheses)", "setting": "[3]; Baseline", "result": "(100.0)"},
      {"measurement": "Ramsay sedation scale score 2-3, number of subjects", "setting": "[3]; Baseline", "result": 0},
      {"measurement": "Ramsay sedation scale score 4, number of subjects", "setting": "[3]; Baseline", "result": 0},
      {"measurement": "Ramsay sedation scale score 5+, number of subjects", "setting": "[3]; Baseline", "result": 0},
      {"measurement": "Ramsay sedation scale: Prior rescue sedation medication given, number of subjects", "setting": "[3]; Baseline", "result": 0},
      {"measurement": "Ramsay sedation scale score 1, number of subjects", "setting": "[3]; [4]", "result": 7},
      {"measurement": "Ramsay sedation scale score 1, percent of subjects (in parentheses)", "setting": "[3]; [4]", "result": "(7.9)"},
      {"measurement": "Ramsay sedation scale score 2-3, number of subjects", "setting": "[3]; [4]", "result": 65},
      {"measurement": "Ramsay sedation scale score 2-3, percent of subjects (in parentheses)", "setting": "[3]; [4]", "result": "(73.0)"},
      {"measurement": "Ramsay sedation scale score 4, number of subjects", "setting": "[3]; [4]", "result": 0},
      {"measurement": "Ramsay sedation scale score 5+, number of subjects", "setting": "[3]; [4]", "result": 0},
      {"measurement": "Ramsay sedation scale: Prior rescue sedation medication given, number of subjects", "setting": "[3]; [4]", "result": 17},
      {"measurement": "Ramsay sedation scale: Prior rescue sedation medication given, percent of subjects (in parentheses)", "setting": "[3]; [4]", "result": "(19.1)"},
      {"measurement": "Ramsay sedation scale score 1, number of subjects", "setting": "[3]; Maximum intraoperative score", "result": 4},
      {"measurement": "Ramsay sedation scale score 1, percent of subjects (in parentheses)", "setting": "[3]; Maximum intraoperative score", "result": "(4.5)"},
      {"measurement": "Ramsay sedation scale score 2-3, number of subjects", "setting": "[3]; Maximum intraoperative score", "result": 60},
      {"measurement": "Ramsay sedation scale score 2-3, percent of subjects (in parentheses)", "setting": "[3]; Maximum intraoperative score", "result": "(67.4)"},
      {"measurement": "Ramsay sedation scale score 4, number of subjects", "setting": "[3]; Maximum intraoperative score", "result": 0},
      {"measurement": "Ramsay sedation scale score 5+, number of subjects", "setting": "[3]; Maximum intraoperative score", "result": 0},
      {"measurement": "Ramsay sedation scale: Prior rescue sedation medication given, number of subjects", "setting": "[3]; Maximum intraoperative score", "result": 25},
      {"measurement": "Ramsay sedation scale: Prior rescue sedation medication given, percent of subjects (in parentheses)", "setting": "[3]; Maximum intraoperative score", "result": "(28.1)"},
      {"measurement": "Ramsay sedation scale score 1, number of subjects", "setting": "[3]; Maximum postoperative score", "result": 45},
      {"measurement": "Ramsay sedation scale score 1, percent of subjects (in parentheses)", "setting": "[3]; Maximum postoperative score", "result": "(50.6)"},
      {"measurement": "Ramsay sedation scale score 2-3, number of subjects", "setting": "[3]; Maximum postoperative score", "result": 14},
      {"measurement": "Ramsay sedation scale score 2-3, percent of subjects (in parentheses)", "setting": "[3]; Maximum postoperative score", "result": "(15.7)"},
      {"measurement": "Ramsay sedation scale score 4, number of subjects", "setting": "[3]; Maximum postoperative score", "result": 0},
      {"measurement": "Ramsay sedation scale score 5+, number of subjects", "setting": "[3]; Maximum postoperative score", "result": 0},
      {"measurement": "Ramsay sedation scale: Prior rescue sedation medication given, number of subjects", "setting": "[3]; Maximum postoperative score", "result": 29},
      {"measurement": "Ramsay sedation scale: Prior rescue sedation medication given, percent of subjects (in parentheses)", "setting": "[3]; Maximum postoperative score", "result": "(32.6)"},
      {"measurement": "Ramsay sedation scale score 1, number of subjects", "setting": "[3]; Maximum preoperative score", "result": 22},
      {"measurement": "Ramsay sedation scale score 1, percent of subjects (in parentheses)", "setting": "[3]; Maximum preoperative score", "result": "(24.7)"},
      {"measurement": "Ramsay sedation scale score 2-3, number of subjects", "setting": "[3]; Maximum preoperative score", "result": 67},
      {"measurement": "Ramsay sedation scale score 2-3, percent of subjects (in parentheses)", "setting": "[3]; Maximum preoperative score", "result": "(75.3)"},
      {"measurement": "Ramsay sedation scale score 4, number of subjects", "setting": "[3]; Maximum preoperative score", "result": 0},
      {"measurement": "Ramsay sedation scale score 5+, number of subjects", "setting": "[3]; Maximum preoperative score", "result": 0},
      {"measurement": "Ramsay sedation scale: Prior rescue sedation medication given, number of subjects", "setting": "[3]; Maximum preoperative score", "result": 0},
      {"measurement": "Ramsay sedation scale score 1, number of subjects", "setting": "[3]; Maximum score overall", "result": 22},
      {"measurement": "Ramsay sedation scale score 1, percent of subjects (in parentheses)", "setting": "[3]; Maximum score overall", "result": "(24.7)"},
      {"measurement": "Ramsay sedation scale score 2-3, number of subjects", "setting": "[3]; Maximum score overall", "result": 67},
      {"measurement": "Ramsay sedation scale score 2-3, percent of subjects (in parentheses)", "setting": "[3]; Maximum score overall", "result": "(75.3)"},
      {"measurement": "Ramsay sedation scale score 4, number of subjects", "setting": "[3]; Maximum score overall", "result": 0},
      {"measurement": "Ramsay sedation scale score 5+, number of subjects", "setting": "[3]; Maximum score overall", "result": 0},
      {"measurement": "Ramsay sedation scale: Prior rescue sedation medication given, number of subjects", "setting": "[3]; Maximum score overall", "result": 0},
      {"measurement": "Ramsay sedation scale score 1, number of subjects", "setting": "[3]; Minimum intraoperative score", "result": 4},
      {"measurement": "Ramsay sedation scale score 1, percent of subjects (in parentheses)", "setting": "[3]; Minimum intraoperative score", "result": "(4.5)"},
      {"measurement": "Ramsay sedation scale score 2-3, number of subjects", "setting": "[3]; Minimum intraoperative score", "result": 60},
      {"measurement": "Ramsay sedation scale score 2-3, percent of subjects (in parentheses)", "setting": "[3]; Minimum intraoperative score", "result": "(67.4)"},
      {"measurement": "Ramsay sedation scale score 4, number of subjects", "setting": "[3]; Minimum intraoperative score", "result": 0},
      {"measurement": "Ramsay sedation scale score 5+, number of subjects", "setting": "[3]; Minimum intraoperative score", "result": 0},
      {"measurement": "Ramsay sedation scale: Prior rescue sedation medication given, number of subjects", "setting": "[3]; Minimum intraoperative score", "result": 25},
      {"measurement": "Ramsay sedation scale: Prior rescue sedation medication given, percent of subjects (in parentheses)", "setting": "[3]; Minimum intraoperative score", "result": "(28.1)"},
      {"measurement": "Ramsay sedation scale score 1, number of subjects", "setting": "[3]; Minimum postoperative score", "result": 49},
      {"measurement": "Ramsay sedation scale score 1, percent of subjects (in parentheses)", "setting": "[3]; Minimum postoperative score", "result": "(55.1)"},
      {"measurement": "Ramsay sedation scale score 2-3, number of subjects", "setting": "[3]; Minimum postoperative score", "result": 10},
      {"measurement": "Ramsay sedation scale score 2-3, percent of subjects (in parentheses)", "setting": "[3]; Minimum postoperative score", "result": "(11.2)"},
      {"measurement": "Ramsay sedation scale score 4, number of subjects", "setting": "[3]; Minimum postoperative score", "result": 0},
      {"measurement": "Ramsay sedation scale score 5+, number of subjects", "setting": "[3]; Minimum postoperative score", "result": 0},
      {"measurement": "Ramsay sedation scale: Prior rescue sedation medication given, number of subjects", "setting": "[3]; Minimum postoperative score", "result": 29},
      {"measurement": "Ramsay sedation scale: Prior rescue sedation medication given, percent of subjects (in parentheses)", "setting": "[3]; Minimum postoperative score", "result": "(32.6)"}
    ]}
  ]
}
